From patent US9169254B2, “Spiroimidazolone derivative” (Chugai Seiyaku Kabushiki Kaisha, priority 2009, dated 2015)

Target: T1, human PTH1 receptor (Homo sapiens, UniProt Q03431)
T1 sequence (Q03431 27-593): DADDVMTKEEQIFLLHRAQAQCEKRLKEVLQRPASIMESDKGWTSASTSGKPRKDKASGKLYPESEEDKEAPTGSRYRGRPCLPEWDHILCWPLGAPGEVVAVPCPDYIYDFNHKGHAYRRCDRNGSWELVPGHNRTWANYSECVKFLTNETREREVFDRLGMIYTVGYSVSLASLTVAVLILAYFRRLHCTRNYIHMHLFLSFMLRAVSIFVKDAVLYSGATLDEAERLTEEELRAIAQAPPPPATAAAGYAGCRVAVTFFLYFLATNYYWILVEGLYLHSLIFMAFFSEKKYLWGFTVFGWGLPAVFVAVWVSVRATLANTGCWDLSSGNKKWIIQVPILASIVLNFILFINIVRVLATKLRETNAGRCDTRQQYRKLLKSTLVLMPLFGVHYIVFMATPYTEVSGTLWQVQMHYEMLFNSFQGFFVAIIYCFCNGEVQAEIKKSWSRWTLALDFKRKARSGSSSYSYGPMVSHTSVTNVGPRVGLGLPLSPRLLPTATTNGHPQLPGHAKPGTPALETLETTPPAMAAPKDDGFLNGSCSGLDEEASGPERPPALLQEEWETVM
Assay: In vitro cAMP signal activity in HKRK-B7 cells (LLC-PK1 cells overexpressing the human PTH1 receptor)
Type: cell-based
Conditions: HKRK-B7 cells; compound at 1×10^−3 M; cAMP produced as percentage of that produced by hPTH(1-34) at 100 nM

Row | SMILES | cAMP production activity (%)
1 | Cc1cc(C(=O)N(C)C)ccc1CCS(=O)(=O)N1CCC2(CC1)N=C(c1c(F)cccc1F)NC2=O [Compound 78, 4-{2-[2-(2,6-difluoro-phenyl)-4-oxo-1,3,8-triaza-spiro[4.5]dec-1-ene-8-sulfonyl]-ethyl}-3,N,N-trimethyl-benzamide] | 31
2 | O=C1NC(C2CCC(CCC(F)(F)F)CC2)=NC12CCN(S(=O)(=O)/C=C/c1cccc3c1ccn3C[C@@H](O)CO)CC2 (stereo partly drawn) [Compound 541, 8-{(E)-2-[1-((R)-2,3-dihydroxy-propyl)-1H-indol-4-yl]-ethenesulfonyl}-2-[4-(3,3,3-trifluoro-propyl)-cyclohexyl]-1,3,8-triaza-spiro[4.5]dec-1-en-4-one] | 79
3 | Cc1cc(C(=O)N(C)C)cc(C)c1/C=C/S(=O)(=O)N1CCC2(CC1)N=C(C1CCC(CCC(F)(F)F)CC1)NC2=O (stereo not drawn) [Compound 994, 3,5,N,N-tetramethyl-4-((E)-2-{4-oxo-2-[4-(3,3,3-trifluoro-propyl)-cyclohexyl]-1,3,8-triaza-spiro[4.5]dec-1-ene-8-sulfonyl}-vinyl)-benzamide] | 87
4 | Cc1cc(C(=O)N(C)C)cc(C)c1CCS(=O)(=O)N1CCC2(CC1)N=C(C1CCC(CCC(F)(F)F)CC1)NC2=O (stereo not drawn) [Compound 1378, 3,5,N,N-Tetramethyl-4-(2-{4-oxo-2-[4-(3,3,3-trifluoro-propyl)-cyclohexyl]-1,3,8-triaza-spiro[4.5]dec-1-ene-8-sulfonyl}-ethyl)-benzamide] | 116
5 | O=C1NC(c2ccccc2-c2ccccc2)=NC12CCN(S(=O)(=O)c1cccc(Cl)c1)CC2 [Compound 10, 2-biphenyl-2-yl-8-(3-chloro-benzenesulfonyl)-1,3,8-triaza-spiro[4.5]dec-1-en-4-one] | 2.4
6 | CCCCCC[C@H]1CCCC[C@@H]1C1=NC2(CCN(S(=O)(=O)CCc3c(C)cc(N(C)C(N)=O)cc3C)CC2)C(=O)N1 [Compound 1057, 1-(4-{2-[2-((1S,2S)-2-hexyl-cyclohexyl)-4-oxo-1,3,8-triaza-spiro[4.5]dec-1-ene-8-sulfonyl]-ethyl}-3,5-dimethyl-phenyl)-1-methyl-urea] | 100
7 | CCCc1cc2ccc(C3=NC4(CCN([S@TB18](=O)(=O)/C=C/c5c(C)cc(N(C)C(N)=O)cc5C)CC4)C(=O)N3)cc2o1 [Compound 1127, 1-(3,5-dimethyl-4-{(E)-2-[4-oxo-2-(2-propyl-benzofuran-6-yl)-1,3,8-triaza-spiro[4.5]dec-1-ene-8-sulfonyl]-vinyl}-phenyl)-1-methyl-urea] | 91
8 | Cc1cc(N(C[C@H](O)CO)C(N)=O)cc(C)c1/C=C/S(=O)(=O)N1CCC2(CC1)N=C(C1CCC(C)CC1)NC2=O (stereo partly drawn) [Compound 733, 1-((S)-2,3-Dihydroxy-propyl)-1-(3,5-dimethyl-4-{(E)-2-[2-(4-methyl-cyclohexyl)-4-oxo-1,3,8-triaza-spiro[4.5]dec-1-ene-8-sulfonyl]-vinyl}-phenyl)-urea] | 104
9 | Cc1cc(CN2C(=O)NC(C)(C)C2=O)cc(C)c1/C=C/S(=O)(=O)N1CCC2(CC1)N=C(C1CCC(C)CC1)NC2=O (stereo not drawn) [Compound 519, 3-(3,5-dimethyl-4-{(E)-2-[2-(4-methyl-cyclohexyl)-4-oxo-1,3,8-triaza-spiro[4.5]dec-1-ene-8-sulfonyl]-vinyl}-benzyl)-5,5-dimethyl-imidazolidine-2,4-dione] | 72
10 | Cc1cc(C(=O)N2CCC(C)(O)CC2)cc(C)c1CCS(=O)(=O)N1CCC2(CC1)N=C(c1ccc(OC(F)(F)F)cc1)NC2=O [Compound 1234, 8-{2-[4-(4-hydroxy-4-methyl-piperidine-1-carbonyl)-2,6-dimethyl-phenyl]-ethanesulfonyl}-2-(4-trifluoromethoxy-phenyl)-1,3,8-triaza-spiro[4.5]dec-1-en-4-one] | 114
11 | O=C1NC(c2cccc(C(F)(F)F)c2)=NC12CCN(S(=O)(=O)CCc1ccc(NCCO)cc1C(F)(F)F)CC2 [Compound 286, 8-{2-[4-(2-hydroxy-ethylamino)-2-trifluoromethyl-phenyl]-ethanesulfonyl}-2-(3-trifluoromethyl-phenyl)-1,3,8-triaza-spiro[4.5]dec-1-en-4-one] | 54
12 | Cc1cc(N(CCO)C(=O)CO)ccc1CCS(=O)(=O)N1CCC2(CC1)N=C(c1cccc(OC(F)(F)F)c1)NC2=O [Compound 930, 2-Hydroxy-N-(2-hydroxy-ethyl)-N-(3-methyl-4-{2-[4-oxo-2-(3-trifluoromethoxy-phenyl)-1,3,8-triaza-spiro[4.5]dec-1-ene-8-sulfonyl]-ethyl}-phenyl)-acetamide] | 92
13 | CNCc1cc(C)c(/C=C/S(=O)(=O)N2CCC3(CC2)N=C(C2CCC(C)CC2)NC3=O)c(C)c1 (stereo not drawn) [Compound 1289, 8-[(E)-2-(2,6-Dimethyl-4-methylaminomethyl-phenyl)-ethenesulfonyl]-2-(4-methyl-cyclohexyl)-1,3,8-triaza-spiro[4.5]dec-1-en-4-one] | 17
14 | Cc1cc(C(=O)N2CC[C@@H](F)C2)cc(C)c1/C=C/S(=O)(=O)N1CCC2(CC1)N=C(c1cccc(OC(F)(F)F)c1)NC2=O [Compound 959, 8-{(E)-2-[4-((R)-3-Fluoro-pyrrolidine-1-carbonyl)-2,6-dimethyl-phenyl]-ethenesulfonyl}-2-(3-trifluoromethoxy-phenyl)-1,3,8-triaza-spiro[4.5]dec-1-en-4-one] | 77
15 | Cc1cc(N2C(=O)CNC2=O)ccc1/C=C/S(=O)(=O)N1CCC2(CC1)N=C(C1CCC(C)CC1)NC2=O (stereo not drawn) [Compound 504, 3-(3-methyl-4-{(E)-2-[2-(4-methyl-cyclohexyl)-4-oxo-1,3,8-triaza-spiro[4.5]dec-1-ene-8-sulfonyl]-vinyl}-phenyl)-imidazolidine-2,4-dione] | 60
16 | Cc1cc(N2C(C)(C)C(=O)NS2(=O)=O)cc(C)c1CCS(=O)(=O)N1CCC2(CC1)N=C(C1CCC(C)CC1)NC2=O (stereo not drawn) [Compound 656, 8-{2-[4-(3,3-dimethyl-1,1,4-trioxo-1λ^6-[1,2,5]thiadiazolidin-2-yl)-2,6-dimethyl-phenyl]-ethanesulfonyl}-2-(4-methyl-cyclohexyl)-1,3,8-triaza-spiro[4.5]dec-1-en-4-one] | 14
17 | Cc1cc(C(=O)N(C)C)ccc1CCS(=O)(=O)N1CCC2(CC1)N=C(c1ccc(F)c(Cl)c1)NC2=O [Compound 89, 4-{2-[2-(3-chloro-4-fluoro-phenyl)-4-oxo-1,3,8-triaza-spiro[4.5]dec-1-ene-8-sulfonyl]-ethyl}-3,N,N-trimethyl-benzamide] | 96
18 | CN(C)C(=O)n1ccc2cccc(CCS(=O)(=O)N3CCC4(CC3)N=C(C3CCCCC3)NC4=O)c21 [Compound 647, 7-[2-(2-cyclohexyl-4-oxo-1,3,8-triaza-spiro[4.5]dec-1-ene-8-sulfonyl)-ethyl]-indole-1-carboxylic acid dimethylamide] | 104
19 | Cc1cc(N(C)C(N)=O)cc(C)c1CCS(=O)(=O)N1CCC2(CC1)N=C(c1ccc(OCCCC(F)(F)F)cc1)NC2=O [Compound 1339, 1-[3,5-dimethyl-4-(2-{4-oxo-2-[4-(4,4,4-trifluoro-butoxy)-phenyl]-1,3,8-triaza-spiro[4.5]dec-1-ene-8-sulfonyl}-ethyl)-phenyl]-1-methyl-urea] | 86
20 | Cc1cc(N(C2CCNCC2)S(C)(=O)=O)cc(C)c1/C=C/S(=O)(=O)N1CCC2(CC1)N=C(c1cccc(OC(F)(F)F)c1)NC2=O [Compound 689, N-(3,5-Dimethyl-4-{(E)-2-[4-oxo-2-(3-trifluoromethoxy-phenyl)-1,3,8-triaza-spiro[4.5]dec-1-ene-8-sulfonyl]-vinyl}-phenyl)-N-piperidin-4-yl-methanesulfonamide] | 27
21 | Cc1cc(C(=O)N2CCC(O)CC2)cc(C)c1/C=C/S(=O)(=O)N1CCC2(CC1)N=C(c1cccc(OC(F)(F)F)c1)NC2=O [Compound 400, 8-{(E)-2-[4-(4-hydroxy-piperidine-1-carbonyl)-2,6-dimethyl-phenyl]-ethenesulfonyl}-2-(3-trifluoromethoxy-phenyl)-1,3,8-triaza-spiro[4.5]dec-1-en-4-one] | 76
22 | O=C1NC(C2CCCN(S(=O)(=O)Cc3ccccc3)C2)=NC12CCN(S(=O)(=O)CCc1cccc3ccccc13)CC2 (stereo not drawn) [Compound 43, 8-(2-naphthalen-1-yl-ethanesulfonyl)-2-(1-phenylmethanesulfonyl-piperidin-3-yl)-1,3,8-triaza-spiro[4.5]dec-1-en-4-one] | 39
23 | O=C(Cc1c[nH]c2cccc(CCS(=O)(=O)N3CCC4(CC3)N=C(C3CCCCC3)NC4=O)c12)NCc1ccccc1 [Compound 420, N-Benzyl-2-{4-[2-(2-cyclohexyl-4-oxo-1,3,8-triaza-spiro[4.5]dec-1-ene-8-sulfonyl)-ethyl]-1H-indol-3-yl}-acetamide] | 31
24 | Cc1cc(C(=O)N2CCC(O)(CO)CC2)cc(C)c1/C=C/S(=O)(=O)N1CCC2(CC1)N=C(c1cccc(C(F)(F)F)c1)NC2=O [Compound 386, 8-{(E)-2-[4-(4-hydroxy-4-hydroxymethyl-piperidine-1-carbonyl)-2,6-dimethyl-phenyl]-ethenesulfonyl}-2-(3-trifluoromethyl-phenyl)-1,3,8-triaza-spiro[4.5]dec-1-en-4-one] | 86
